# Data from the supplement of paper PMC10307832.
# What was measured:
# Assay in all cases: relative viability (nuclei count vs DMSO), 5 days (fraction); higher = more cells survive
# [1] = compound: Cc1ccc2nc(NCCN)c3ncc(C)n3c2c1 + CC(=O)Nc1cccc(-n2c(=O)n(C3CC3)c(=O)c3c(Nc4ccc(I)cc4F)n(C)c(=O)c(C)c32)c1 [Trametinib] (partner 0.02 µM)
# Outline: (§1)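 Relative viability divides the nuclei count in treated wells by that in vehicle wells. Lung cancer cell lines were seeded in 1536-well plates, dosed by pin tool the next day, and fixed and stained after 5 days in one step with final 0.05% Triton X-100, 1% formaldehyde and 1 ug/ml Hoechst. Dosing was a single drug or a fixed anchor-drug dose plus five library-drug doses (not always all listed) in √10 steps, and values are medians of duplicate plates imaged at 4×.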
# [2] = compound: Cc1ccc2nc(NCCN)c3ncc(C)n3c2c1 + CS(=O)(=O)CCNCc1ccc(-c2ccc3ncnc(Nc4ccc(OCc5cccc(F)c5)c(Cl)c4)c3c2)o1 [Lapatinib] (partner 2 µM)
# Outline: as §1
# [3] = compound: Cc1ccc2nc(NCCN)c3ncc(C)n3c2c1 + CS(=O)(=O)N1CCN(Cc2cc3nc(-c4cccc5[nH]ncc45)nc(N4CCOCC4)c3s2)CC1 [Pictilisib] (partner 1 µM)
# Outline: as §1
# [4] = compound: O=C(/C=C/c1ccccc1)NC(NC(=S)Nc1cccc2cccnc12)C(Cl)(Cl)Cl [Salubrinal] + CC(=O)Nc1cccc(-n2c(=O)n(C3CC3)c(=O)c3c(Nc4ccc(I)cc4F)n(C)c(=O)c(C)c32)c1 [Trametinib] (partner 0.02 µM)
# Outline: as §1
cell line,measurement,setting,value
UMC-11,relative viability,[1]; first compound 0.04 µM,0.707
same,relative viability,[1]; first compound 0.1265 µM,0.7
same,relative viability,[1]; first compound 0.4 µM,0.72
same,relative viability,[1]; first compound 1.265 µM,0.703
same,relative viability,[1]; first compound 4 µM,0.632
same,relative viability,[2]; first compound 0.04 µM,1.03
same,relative viability,[2]; first compound 0.1265 µM,1.04
same,relative viability,[2]; first compound 0.4 µM,0.877
same,relative viability,[2]; first compound 1.265 µM,0.898
same,relative viability,[2]; first compound 4 µM,0.91
same,relative viability,[3]; first compound 0.04 µM,0.857
same,relative viability,[3]; first compound 0.1265 µM,0.692
same,relative viability,[3]; first compound 0.4 µM,0.808
same,relative viability,[3]; first compound 1.265 µM,0.813
same,relative viability,[3]; first compound 4 µM,0.708
same,relative viability,[4]; first compound 0.08 µM,0.468
same,relative viability,[4]; first compound 0.253 µM,0.749
same,relative viability,[4]; first compound 0.8 µM,0.741
same,relative viability,[4]; first compound 2.53 µM,0.775
same,relative viability,[4]; first compound 8 µM,0.826
